Results reported in ChEMBL document CHEMBL5390204, “Persephacin Is a Broad-Spectrum Antifungal Aureobasidin Metabolite That Overcomes Intrinsic Resistance in Aspergillus fumigatus” (J Nat Prod, 2023).
Values after ≈ are worked out from the molar mass of the structure shown.

What was measured:
[1] = system: Aspergillus fumigatus; assay: Antifungal activity against Aspergillus fumigatus NRRL5109 assessed as reduction in fungal viability incubated for 48 hrs by microplate reader analysis; assay type: functional
[2] = system: Aspergillus fumigatus; assay: Antifungal activity against Aspergillus fumigatus MYA 3627 assessed as reduction in fungal viability incubated for 48 hrs by microplate reader analysis; assay type: functional
[3] = system: [Candida] auris; assay: Antifungal activity against multidrug-resistant Candida auris 381 assessed as inhibition in fungal growth incubated for 48 hrs in presence of 10% serum by microplate reader analysis; assay type: functional; conditions: Candidozyma auris
[4] = system: Pichia kudriavzevii; assay: Antifungal activity against Candida krusei ATCC 6258 (Y-7179) assessed as reduction in fungal viability incubated for 48 hrs by microplate reader analysis; assay type: functional
[5] = system: Aspergillus fumigatus; assay: Antifungal activity against Aspergillus fumigatus NRRL6113 assessed as reduction in fungal growth incubated for 48 hrs by microplate reader analysis; assay type: functional
[6] = system: Candida albicans; assay: Antifungal activity against Candida albicans ATCC 10231 assessed as reduction in fungal viability incubated for 48 hrs by microplate reader analysis; assay type: functional
[7] = system: Candida albicans; assay: Antifungal activity against Candida albicans SC5314 assessed as reduction in fungal viability incubated for 48 hrs by microplate reader analysis; assay type: functional
[8] = system: Candida parapsilosis; assay: Antifungal activity against Candida parapsilosis 9 assessed as inhibition in fungal growth incubated for 48 hrs by microplate reader analysis; assay type: functional; conditions: Lodderomyces parapsilosis
[9] = system: Candida duobushaemulonii; assay: Antifungal activity against multidrug-resistant Candida duobushaemulonii 391 assessed as inhibition in fungal growth incubated for 48 hrs by microplate reader analysis; assay type: functional; conditions: Candidozyma duobushaemuli
[10] = system: Candida albicans; assay: Antifungal activity against Candida albicans 24 assessed as inhibition in fungal growth incubated for 48 hrs by microplate reader analysis; assay type: functional
[11] = system: Kluyveromyces marxianus; assay: Antifungal activity against Candida kefyr 12 assessed as inhibition in fungal growth incubated for 48 hrs by microplate reader analysis; assay type: functional
[12] = system: Aspergillus fumigatus; assay: Antifungal activity against Aspergillus fumigatus ATCC MYA-3627 assessed as inhibition in fungal growth incubated for 48 hrs in presence of 10% serum by microplate reader analysis; assay type: functional
[13] = system: [Candida] auris; assay: Antifungal activity against multidrug-resistant Candida auris 382 assessed as inhibition in fungal growth incubated for 48 hrs by microplate reader analysis; assay type: functional; conditions: Candidozyma auris
[14] = system: Nakaseomyces glabratus; assay: Antifungal activity against Candida glabrata 16 assessed as inhibition in fungal growth incubated for 48 hrs by microplate reader analysis; assay type: functional
[15] = system: [Candida] auris; assay: Antifungal activity against multidrug-resistant Candida auris 388 assessed as inhibition in fungal growth incubated for 48 hrs by microplate reader analysis; assay type: functional; conditions: Candidozyma auris
[16] = system: Aspergillus fumigatus; assay: Antifungal activity against Aspergillus fumigatus NRRL5109 assessed as reduction in fungal growth incubated for 48 hrs by microplate reader analysis; assay type: functional
[17] = system: Candida parapsilosis; assay: Antifungal activity against Candida parapsilosis ATCC 22019 (Y-12969) assessed as reduction in fungal viability incubated for 48 hrs by microplate reader analysis; assay type: functional
[18] = system: Pichia kudriavzevii; assay: Antifungal activity against multidrug-resistant Candida krusei 397 assessed as inhibition in fungal growth incubated for 48 hrs by microplate reader analysis; assay type: functional
[19] = system: Cryptococcus neoformans; assay: Antifungal activity against Cryptococcus neoformans H99 assessed as reduction in fungal viability incubated for 48 hrs by microplate reader analysis; assay type: functional
[20] = system: Candida albicans; assay: Antifungal activity against Candida albicans 3 assessed as inhibition in fungal growth incubated for 48 hrs by microplate reader analysis; assay type: functional
[21] = system: Aspergillus flavus; assay: Antifungal activity against Aspergillus flavus NRRL485 assessed as reduction in fungal growth incubated for 48 hrs by microplate reader analysis; assay type: functional
[22] = system: Saccharomyces cerevisiae; assay: Antifungal activity against multidrug-resistant Saccharomyces cerevisiae 399 assessed as inhibition in fungal growth incubated for 48 hrs by microplate reader analysis; assay type: functional
[23] = system: Cryptococcus neoformans; assay: Antifungal activity against Cryptococcus neoformans H99 assessed as inhibition in fungal growth incubated for 48 hrs in presence of 0% serum by microplate reader analysis; assay type: functional
[24] = system: [Candida] auris; assay: Antifungal activity against multidrug-resistant Candida auris 381 assessed as inhibition in fungal growth incubated for 48 hrs by microplate reader analysis; assay type: functional; conditions: Candidozyma auris
[25] = system: [Candida] auris; assay: Antifungal activity against multidrug-resistant Candida auris 386 assessed as inhibition in fungal growth incubated for 48 hrs by microplate reader analysis; assay type: functional; conditions: Candidozyma auris
[26] = system: Aspergillus fumigatus; assay: Antifungal activity against Aspergillus fumigatus ATCC MYA-3627 assessed as inhibition in fungal growth incubated for 48 hrs in presence of 5% serum by microplate reader analysis; assay type: functional
[27] = system: [Candida] haemuloni; assay: Antifungal activity against multidrug-resistant Candida haemulonii 393 assessed as inhibition in fungal growth incubated for 48 hrs by microplate reader analysis; assay type: functional; conditions: Candidozyma haemuli
[28] = system: Hamigera insecticola; assay: Antifungal activity against Hamigera insecticola NRRL35442 assessed as reduction in fungal growth incubated for 48 hrs by microplate reader analysis; assay type: functional
[29] = system: [Candida] auris; assay: Antifungal activity against multidrug-resistant Candida auris 390 assessed as inhibition in fungal growth incubated for 48 hrs by microplate reader analysis; assay type: functional; conditions: Candidozyma auris
[30] = system: Cryptococcus neoformans; assay: Antifungal activity against Cryptococcus neoformans H99 assessed as inhibition in fungal growth incubated for 48 hrs in presence of 10% serum by microplate reader analysis; assay type: functional
[31] = system: Cryptococcus neoformans; assay: Antifungal activity against Cryptococcus neoformans H99 assessed as reduction in fungal growth incubated for 48 hrs by microplate reader analysis; assay type: functional
[32] = system: Candida tropicalis; assay: Antifungal activity against Candida tropicalis ATCC750 (Y-12699) assessed as reduction in fungal viability incubated for 48 hrs by microplate reader analysis; assay type: functional
[33] = system: Candida duobushaemulonii; assay: Antifungal activity against multidrug-resistant Candida duobushaemulonii 394 assessed as inhibition in fungal growth incubated for 48 hrs by microplate reader analysis; assay type: functional; conditions: Candidozyma duobushaemuli
[34] = system: Candida parapsilosis; assay: Antifungal activity against Candida parapsilosis 28 assessed as inhibition in fungal growth incubated for 48 hrs by microplate reader analysis; assay type: functional; conditions: Lodderomyces parapsilosis
[35] = system: Nakaseomyces glabratus; assay: Antifungal activity against Candida glabrata 22 assessed as inhibition in fungal growth incubated for 48 hrs by microplate reader analysis; assay type: functional
[36] = system: Candida albicans; assay: Antifungal activity against Candida albicans ATCC 10231 assessed as reduction in fungal growth incubated for 48 hrs by microplate reader analysis; assay type: functional
[37] = system: [Candida] auris; assay: Antifungal activity against multidrug-resistant Candida auris 389 assessed as inhibition in fungal growth incubated for 48 hrs by microplate reader analysis; assay type: functional; conditions: Candidozyma auris
[38] = system: Candida parapsilosis; assay: Antifungal activity against Candida parapsilosis ATCC 22019 (Y-12969) assessed as reduction in fungal growth incubated for 48 hrs by microplate reader analysis; assay type: functional; conditions: Lodderomyces parapsilosis
[39] = system: Candida albicans; assay: Antifungal activity against Candida albicans 30 assessed as inhibition in fungal growth incubated for 48 hrs by microplate reader analysis; assay type: functional
[40] = system: Paecilomyces lilacinus; assay: Antifungal activity against Paecilomyces lilacinus 165E10 assessed as reduction in fungal viability incubated for 48 hrs by microplate reader analysis; assay type: functional, Purpureocillium lilacinum
[41] = system: Nakaseomyces glabratus; assay: Antifungal activity against Candida glabrata 20 assessed as inhibition in fungal growth incubated for 48 hrs by microplate reader analysis; assay type: functional
[42] = system: Hamigera insecticola; assay: Antifungal activity against Hamigera insecticola NRRL35442 assessed as reduction in fungal viability incubated for 48 hrs by microplate reader analysis; assay type: functional
[43] = system: Aspergillus flavus; assay: Antifungal activity against Aspergillus flavus NRRL485 assessed as reduction in fungal viability incubated for 48 hrs by microplate reader analysis; assay type: functional
[44] = system: Aspergillus fumigatus; assay: Antifungal activity against Aspergillus fumigatus NRRL6113 assessed as reduction in fungal viability incubated for 48 hrs by microplate reader analysis; assay type: functional

`C[C@@H]1[C@H](O)[C@@H](C)/C=C/C=C/C=C/C=C/C=C/C=C/C=C/[C@H](O[C@@H]2O[C@H](C)[C@@H](O)[C@H](N)[C@@H]2O)C[C@@H]2O[C@](O)(C[C@@H](O)C[C@@H](O)[C@H](O)CC[C@@H](O)C[C@@H](O)CC(=O)O[C@H]1C)C[C@H](O)[C@H]2C(=O)O` [AMPHOTERICIN B] was tested. Which “MFC<=99.9” value [1] did it give?
The value was 5 µM (≈ 4.62 µg/mL).

And the “MFC<=99.9” value [2]?
Its value is 2.5 µM (≈ 2.31 µg/mL).

And the MIC80 [3]?
The MIC80 was 0.3 µM.

What about the “MFC<=99.9” value [4] of the same compound?
Its value is 5 µM (≈ 4.62 µg/mL).

What about the MFC [5] of the same compound?
Its MFC is 10 µM (≈ 9.24 µg/mL).

What about the MIC80 [5] of the same compound?
The MIC80 was 2.5 µM (≈ 2.31 µg/mL).

What about the “MFC<=99.9” value [6] of the same compound?
The value was 2.5 µM (≈ 2.31 µg/mL).

What about the “MFC<=99.9” value [7] of the same compound?
The value was 2.5 µM (≈ 2.31 µg/mL).

And the MIC80 [8]?
The MIC80 was 2.5 µM (≈ 2.31 µg/mL).

What about the MIC80 [9] of the same compound?
The MIC80 was 5 µM (≈ 4.62 µg/mL).

And the MIC80 [10]?
Its MIC80 is 1.3 µM (≈ 1.2 µg/mL).

And the MIC80 [11]?
Its MIC80 is 0.3 µM (≈ 0.277 µg/mL).

What about the MIC80 [12] of the same compound?
Its MIC80 is 0.2 µM.

What about the MIC80 [13] of the same compound?
The MIC80 was 1.3 µM (≈ 1.2 µg/mL).

What about the MIC80 [14] of the same compound?
The MIC80 was 0.2 µM (≈ 0.185 µg/mL).

What about the MIC80 [15] of the same compound?
The MIC80 was 2.5 µM (≈ 2.31 µg/mL).

And the MFC [16]?
Its MFC is 5 µM (≈ 4.62 µg/mL).

What about the MIC80 [16] of the same compound?
Its MIC80 is 2.5 µM (≈ 2.31 µg/mL).

What about the “MFC<=99.9” value [17] of the same compound?
The value was 5 µM (≈ 4.62 µg/mL).

What about the MIC80 [18] of the same compound?
Its MIC80 is 2.5 µM (≈ 2.31 µg/mL).

And the “MFC<=99.9” value [19]?
The value was 2.5 µM (≈ 2.31 µg/mL).

And the MIC80 [20]?
Its MIC80 is 0.6 µM (≈ 0.554 µg/mL).

What about the MFC [21] of the same compound?
Its MFC is 10 µM (≈ 9.24 µg/mL).

And the MIC80 [21]?
Its MIC80 is 5 µM (≈ 4.62 µg/mL).

What about the MIC80 [22] of the same compound?
Its MIC80 is 2.5 µM (≈ 2.31 µg/mL).

And the MIC80 [23]?
Its MIC80 is 1.3 µM.

What about the MIC80 [24] of the same compound?
Its MIC80 is 1.3 µM (≈ 1.2 µg/mL).

And the MIC80 [25]?
The MIC80 was 2.5 µM (≈ 2.31 µg/mL).

What about the MIC80 [26] of the same compound?
The MIC80 was < 0.1 µM.

And the MIC80 [27]?
Its MIC80 is 5 µM (≈ 4.62 µg/mL).

And the MFC [28]?
The MFC was 10 µM (≈ 9.24 µg/mL).

What about the MIC80 [28] of the same compound?
Its MIC80 is 2.5 µM (≈ 2.31 µg/mL).

And the MIC80 [29]?
Its MIC80 is 2.5 µM (≈ 2.31 µg/mL).

And the MIC80 [30]?
Its MIC80 is < 0.2 µM.

What about the MFC [31] of the same compound?
The MFC was 2.5 µM (≈ 2.31 µg/mL).

And the MIC80 [31]?
The MIC80 was 1.3 µM (≈ 1.2 µg/mL).

And the “MFC<=99.9” value [32]?
The value was 2.5 µM (≈ 2.31 µg/mL).

What about the MIC80 [33] of the same compound?
Its MIC80 is 5 µM (≈ 4.62 µg/mL).

What about the MIC80 [34] of the same compound?
The MIC80 was 1.3 µM (≈ 1.2 µg/mL).

And the MIC80 [35]?
The MIC80 was 0.3 µM (≈ 0.277 µg/mL).

And the MFC [36]?
The MFC was 2.5 µM (≈ 2.31 µg/mL).

And the MIC80 [36]?
The MIC80 was 0.6 µM (≈ 0.554 µg/mL).

And the MIC80 [37]?
The MIC80 was 5 µM (≈ 4.62 µg/mL).

What about the MFC [38] of the same compound?
The MFC was 5 µM (≈ 4.62 µg/mL).

What about the MIC80 [38] of the same compound?
The MIC80 was 1.3 µM (≈ 1.2 µg/mL).

And the MIC80 [39]?
The MIC80 was 2.5 µM (≈ 2.31 µg/mL).

And the “MFC<=99.9” value [40]?
The value was >10 µM.

And the MIC80 [41]?
The MIC80 was 0.6 µM (≈ 0.554 µg/mL).

And the “MFC<=99.9” value [42]?
The value was 10 µM (≈ 9.24 µg/mL).

What about the “MFC<=99.9” value [43] of the same compound?
Its value is 10 µM (≈ 9.24 µg/mL).

What about the “MFC<=99.9” value [44] of the same compound?
Its value is 10 µM (≈ 9.24 µg/mL).
